Laboratory results reported in ChEMBL document CHEMBL3045925 (Med Chem Res, 2013).
≈ marks a conversion by molar mass, not a printed value. Calls of active or inactive are those of the source. The calls are words filed in the database; no cut-off is given here.

How the values were obtained:
[1] = tested on: Radical scavenging activity; assay: Antioxidant activity assessed as DPPH free radical scavenging activity at 125 ug/mL after 30 min by spectrophotometric analysis; assay type: functional
[2] = Antioxidant activity assessed as reduction of Cu2+ to Cu+ at 125 to 1000 ug/mL after 30 min by spectrophotometric analysis; assay type: functional
[3] = tested on: Radical scavenging activity; assay: Antioxidant activity assessed as DPPH free radical scavenging activity at 1000 ug/mL after 30 min by spectrophotometric analysis; assay type: functional
[4] = tested on: Radical scavenging activity; assay: Antioxidant activity assessed as DPPH free radical scavenging activity at 500 ug/mL after 30 min by spectrophotometric analysis; assay type: functional
[5] = Antioxidant activity assessed as reduction of Fe3+ to Fe2+ measured Fe2+ equivalent per gram dry mass after 4 min by spectrophotometric analysis; assay type: functional
[6] = tested on: Radical scavenging activity; assay: Antioxidant activity assessed as DPPH free radical scavenging activity at 250 ug/mL after 30 min by spectrophotometric analysis; assay type: functional
[7] = tested on: Trichophyton mentagrophytes; assay: Antifungal activity against Trichophyton mentagrophytes 66/01 assessed as growth inhibition after 48 to 72 hr by two-fold serial dilution method; assay type: functional
Aspergillus flavus = assay: Antifungal activity against Aspergillus flavus assessed as growth inhibition after 48 to 72 hr by two-fold serial dilution method; assay type: functional
Trichophyton rubrum = assay: Antifungal activity against Trichophyton rubrum 57/01 assessed as growth inhibition after 48 to 72 hr by two-fold serial dilution method; assay type: functional
Malassezia pachydermatis = assay: Antifungal activity against Malassezia pachydermatis assessed as growth inhibition after 48 to 72 hr by two-fold serial dilution method; assay type: functional
Candida albicans = assay: Antifungal activity against Candida albicans MTCC 227 assessed as growth inhibition after 48 to 72 hr by two-fold serial dilution method; assay type: functional
Scopulariopsis = assay: Antifungal activity against Scopulariopsis sp. 101/01 assessed as growth inhibition after 48 to 72 hr by two-fold serial dilution method; assay type: functional
Botrytis cinerea = assay: Antifungal activity against Botryotinia fuckeliana assessed as growth inhibition after 48 to 72 hr by two-fold serial dilution method; assay type: functional
Micrococcus luteus = assay: Antibacterial activity against Micrococcus luteus assessed as growth inhibition after 24 hr by two-fold serial dilution method; assay type: functional
Bacillus subtilis = assay: Antibacterial activity against Bacillus subtilis MTCC 441 assessed as growth inhibition after 24 hr by two-fold serial dilution method; assay type: functional; conditions: MTCC 441, 24 h
[8] = tested on: Salmonella enterica subsp. enterica serovar Paratyphi B; assay: Antibacterial activity against Salmonella enterica subsp. enterica serovar Paratyphi B assessed as growth inhibition after 24 hr by two-fold serial dilution method; assay type: functional
Klebsiella pneumoniae [9] = assay: Antibacterial activity against Klebsiella pneumoniae ESBL 3971 clinical isolate assessed as growth inhibition after 24 hr by two-fold serial dilution method; assay type: functional; conditions: ESBL 3971, 24 h
Salmonella typhimurium = assay: Antibacterial activity against Salmonella enterica subsp. enterica serovar Typhimurium MTCC 1251 assessed as growth inhibition after 24 hr by two-fold serial dilution method; assay type: functional; conditions: MTCC 1251, 24 h
Klebsiella pneumoniae [10] = assay: Antibacterial activity against Klebsiella pneumoniae ESBL 3967 clinical isolate assessed as growth inhibition after 24 hr by two-fold serial dilution method; assay type: functional; conditions: ESBL 3967, 24 h
Klebsiella pneumoniae [11] = assay: Antibacterial activity against Klebsiella pneumoniae ESBL 3894 clinical isolate assessed as growth inhibition after 24 hr by two-fold serial dilution method; assay type: functional; conditions: ESBL 3894, 24 h
Pseudomonas aeruginosa = assay: Antibacterial activity against Pseudomonas aeruginosa MTCC 741 assessed as growth inhibition after 24 hr by two-fold serial dilution method; assay type: functional; conditions: MTCC 741, 24 h
Klebsiella pneumoniae [12] = assay: Antibacterial activity against Klebsiella pneumoniae ESBL 75799 clinical isolate assessed as growth inhibition after 24 hr by two-fold serial dilution method; assay type: functional; conditions: ESBL 75799, 24 h
Staphylococcus aureus [13] = assay: Antibacterial activity against Staphylococcus aureus MTCC 96 assessed as growth inhibition after 24 hr by two-fold serial dilution method; assay type: functional; conditions: MTCC 96, 24 h
Staphylococcus aureus [14] = assay: Antibacterial activity against methicillin-resistant Staphylococcus aureus clinical isolate assessed as growth inhibition after 24 hr by two-fold serial dilution method; assay type: functional
[15] = tested on: Staphylococcus epidermidis; assay: Antibacterial activity against Staphylococcus epidermidis MTCC 3615 assessed as growth inhibition after 24 hr by two-fold serial dilution method; assay type: functional; conditions: MTCC 3615, 24 h
Escherichia coli [16] = assay: Antibacterial activity against Escherichia coli ESBL 3984 clinical isolate assessed as growth inhibition after 24 hr by two-fold serial dilution method; assay type: functional; conditions: ESBL 3984, 24 h
Shigella flexneri = assay: Antibacterial activity against Shigella flexneri MTCC 1457 assessed as growth inhibition after 24 hr by two-fold serial dilution method; assay type: functional; conditions: MTCC 1457, 24 h
Escherichia coli [17] = assay: Antibacterial activity against Escherichia coli ESBL 3904 clinical isolate assessed as growth inhibition after 24 hr by two-fold serial dilution method; assay type: functional; conditions: ESBL 3904, 24 h
COLO 320 [18] = assay: Cytotoxicity against Homo sapiens (human) COLO320 cells at 25 ug/mL by MTT assay; assay type: functional
COLO 320 [19] = assay: Cytotoxicity against Homo sapiens (human) COLO320 cells at 200 ug/mL by MTT assay; assay type: functional
COLO 320 [20] = assay: Cytotoxicity against Homo sapiens (human) COLO320 cells by MTT assay
COLO 320 [21] = assay: Cytotoxicity against Homo sapiens (human) COLO320 cells at 100 ug/mL by MTT assay; assay type: functional
COLO 320 [22] = assay: Cytotoxicity against Homo sapiens (human) COLO320 cells at 10 ug/mL by MTT assay; assay type: functional
COLO 320 [23] = assay: Cytotoxicity against Homo sapiens (human) COLO320 cells at 50 ug/mL by MTT assay; assay type: functional
[24] = Antioxidant activity assessed as reduction of Cu2+ to Cu+ after 30 min by spectrophotometric analysis; assay type: functional

Row | Structure (SMILES) | Activity [1] [%] | Activity [3] [%] | Activity [4] [%] | Activity [5] [mMequiv] | Activity [6] [%] | MIC [7] [mg/L] | MIC (Aspergillus flavus) [mg/L] | MIC (Trichophyton rubrum) [mg/L] | MIC (Malassezia pachydermatis) [mg/L] | MIC (Candida albicans) [mg/L] | MIC (Scopulariopsis) [mg/L] | MIC (Botrytis cinerea) [mg/L] | MIC (Micrococcus luteus) [mg/L] | MIC (Bacillus subtilis) [mg/L] | MIC [8] | MIC (Klebsiella pneumoniae [9]) [mg/L] | MIC (Salmonella typhimurium) [mg/L] | MIC (Klebsiella pneumoniae [10]) [mg/L] | MIC (Klebsiella pneumoniae [11]) [mg/L] | MIC (Pseudomonas aeruginosa) [mg/L] | also measured
1 | Cc1cc(C(C)(C)C)c(O)c(C(C)(C)C)c1 | 60.9 | 90.1 | 80.9 | 2.21 | 71.7 | – | – | – | – | – | – | – | – | – | – | – | – | – | – | – | Activity [2]: Active
2 | CC(=O)N1CCN(c2ccc(OCC3COC(Cn4ccnc4)(c4ccc(Cl)cc4Cl)O3)cc2)CC1 (configuration not stated) [KETOCONAZOLE] | – | – | – | – | – | < 12.5 | < 12.5 | < 12.5 | 12.5 (≈ 23.5 µM) | 25 (≈ 47 µM) | < 12.5 | < 12.5 | – | – | – | – | – | – | – | – | –
3 | CN[C@@H]1[C@H](O[C@H]2[C@H](O[C@H]3[C@H](O)[C@@H](O)[C@H](N=C(N)N)[C@@H](O)[C@@H]3N=C(N)N)O[C@@H](C)[C@]2(O)C=O)O[C@@H](CO)[C@H](O)[C@H]1O [STREPTOMYCIN] | – | – | – | – | – | – | – | – | – | – | – | – | 6.25 (≈ 10.7 µM) | 25 (≈ 43 µM) | inactive | 6.25 (≈ 10.7 µM) | 30 (≈ 51.6 µM) | 25 (≈ 43 µM) | 6.25 (≈ 10.7 µM) | 25 (≈ 43 µM) | MIC (Klebsiella pneumoniae [12]): 25 mg/L (≈ 43 µM); MIC (Staphylococcus aureus [13]): 6.25 mg/L (≈ 10.7 µM); MIC (Staphylococcus aureus [14]): 6.25 mg/L (≈ 10.7 µM); MIC [15]: 25 mg/L (≈ 43 µM); MIC (Escherichia coli [16]): 25 mg/L (≈ 43 µM); MIC (Shigella flexneri): 6.25 mg/L (≈ 10.7 µM); MIC (Escherichia coli [17]): 25 mg/L (≈ 43 µM)
4 | COc1cc(/C=C/C(=O)NCCCCNC(=O)/C=C/c2ccc(O)c(OC)c2)ccc1O [TERRESTRIBISAMIDE] | 40.2 | 88.3 | 84.6 | 0.808 | 68.3 | > 200 | > 200 | > 200 | 200 (≈ 454 µM) | 200 (≈ 454 µM) | > 200 | > 200 | 200 (≈ 454 µM) | 200 (≈ 454 µM) | > 200 mg/L | > 200 | > 200 | > 200 | > 200 | > 200 | Activity (COLO 320 [18]): 21.609%; Activity (COLO 320 [19]): 83.218%; IC50 (COLO 320 [20]): 50 mg/L (≈ 114 µM); Activity (COLO 320 [21]): 64.827%; Activity (COLO 320 [22]): 9.655%; MIC (Klebsiella pneumoniae [12]): > 200 mg/L; MIC (Staphylococcus aureus [13]): > 200 mg/L; MIC (Staphylococcus aureus [14]): > 200 mg/L; Activity (COLO 320 [23]): 51.195%; MIC [15]: 200 mg/L (≈ 454 µM); MIC (Escherichia coli [16]): 200 mg/L (≈ 454 µM); MIC (Shigella flexneri): > 200 mg/L; MIC (Escherichia coli [17]): 200 mg/L (≈ 454 µM); Activity [24]: Dose-dependent effect
